# Laboratory results: US10010584B2, “Treatment of depressive disorders” (Blanchette Rockefeller Neuroscience Institute, priority 2004, dated 2018)
# Where two headings read alike, the source gives them in different places.
# T1: PKCε (Homo sapiens, UniProt Q02156)
# T1 sequence (Q02156 1-737): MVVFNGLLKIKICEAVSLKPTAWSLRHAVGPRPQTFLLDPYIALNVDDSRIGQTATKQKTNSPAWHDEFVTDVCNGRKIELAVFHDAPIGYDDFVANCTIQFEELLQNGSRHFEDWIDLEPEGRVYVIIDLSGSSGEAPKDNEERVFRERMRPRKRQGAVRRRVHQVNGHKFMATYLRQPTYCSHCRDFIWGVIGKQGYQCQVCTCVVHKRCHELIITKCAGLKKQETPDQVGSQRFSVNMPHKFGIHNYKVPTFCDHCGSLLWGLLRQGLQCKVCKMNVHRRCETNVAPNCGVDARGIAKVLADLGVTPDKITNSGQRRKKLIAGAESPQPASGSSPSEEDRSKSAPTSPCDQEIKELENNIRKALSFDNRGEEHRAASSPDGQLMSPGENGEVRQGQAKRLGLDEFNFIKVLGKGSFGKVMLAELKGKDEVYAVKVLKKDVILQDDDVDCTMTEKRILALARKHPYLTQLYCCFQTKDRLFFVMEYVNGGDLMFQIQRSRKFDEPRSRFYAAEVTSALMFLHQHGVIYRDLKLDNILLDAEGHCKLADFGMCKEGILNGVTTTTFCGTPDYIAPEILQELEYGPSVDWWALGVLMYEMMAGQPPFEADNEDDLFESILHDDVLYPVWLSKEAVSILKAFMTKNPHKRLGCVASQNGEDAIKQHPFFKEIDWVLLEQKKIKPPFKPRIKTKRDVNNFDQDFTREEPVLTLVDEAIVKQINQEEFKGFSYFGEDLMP
# How the values were obtained:
# NCI 60 cell line screen = details: cited from earlier work
# PKCa = PKCa (Homo sapiens, UniProt P17252); details: cited from earlier work
# [1] = (−)-enantiomer; cited from earlier work
# protein kinase C = details: (−)-enantiomer; cited from earlier work
# PKC [2] = details: cited from earlier work
# [3] = test system: squamous cell carcinoma and melanoma; details: used topically; cited from earlier work
# Adult Wistar rats = assay: Open-space-swimming test; type: in vivo, rat; details: for percentages of decreases in the distance moved on the third day (using the decrease of control groups as 100%): 10 mg/kg×3 per day i.p., n=8; for mobility (distance moved) / immobility compared with control group: 10 mg/kg×3 per day, 23, 2 and 1 h before trial sessions, saline control
# Method: Adult Wistar rats (180-200 g) were housed in a temperature-controlled (20-24° C.) room for at least a week prior to experimentation, allowed free access to food and water, and kept on a 12-h light/dark cycle. They were randomly assigned to different groups (eight each) and were moved to the test room in their home cages at least 1 h before trials. Rats were individually placed into a round pool with a diameter of 152 cm and height of 60 cm and was filled with 40 cm H2O (22±1° C.). The room and pool are part of the started set-up used for spatial water maze task. (Sun et al. (2002) J. Pharmacol. Exp. Ther. 300: 408-416). The tests for different drug treatment and control groups were in a counterbalanced order. No escape was available in these trials. Rats were free to swim (or not to swim) for 15 min and then removed and returned to their home cage after drying. Observers were obscured from sight of the rats during the trials, but were able to observe the animals' behaviors on a video screen monitor during trials. The same procedure (15 min session per day) was repeated 24 h later and continued for 3 additional days. Drugs were dissolved in a saline solution for test groups and saline alone was used in the control groups. Imipramine (10 mg/kg×3 day, i.p.), iproniazid (10 mg/kg×3 per day, i.p.), mianserin (10 mg/kg×3 per day, i.p.), alaproclate (10 mg/kg×3 per day), or saline were administered between the swimming trial sessions at 23, 2, and 1 h before the second, third, and fourth trial sessions, respectively. The rationale for the three doses before test trials is the more consistent predictive effects than those of a single dose (Porsolt et al. (1977) Nature 266: 730-730-732; Porsolt et al. (1978) Eur J. Pharmacol. 47: 379-391; Poncelet et al, (1986) Psychopharmacology 90: 139-141). The swimming/drifting path was recorded with a video-tracking system that was also used for the spatial water maze task in other studies (Sun et al., 2002; Sun and Alkon, 2002a). The system tracks the animal's position by recording sequential x/y-coordinates of trigger events (video signal above track level) and calculating the distance, in the pool (sample period: 0.055 s) and adds the distance at pre-set intervals (15 min) during each trial. The tracking system, however, neither distinguishes nor determines the duration of any period of mobility or immobility. To evaluate whether the distance moved, as recorded by the tracking system, reflects the duration of active swimming, the investigator(s) also recorded the duration of active swimming on-line via the video screen monitor for a direct comparison of the two parameters.
# Depressive behavior in rats was induced by placing the animals in an open-space swimming apparatus, as described herein, for 15 minutes per trial per day. The animals were subjected to three trials over the course of three days. The animals were divided into three groups: control rats (8); phenylalanine rats (10); and imipramine rats (10). The control rats received a single i.v. dose of saline in the tail vein, 3.5 hours before the second trial. […] Rats in the imipramine group received 3 i.p. doses (10 mg/kg) at 23, 2 and 1 hour before the first, second and third trials, respectively.
# Depressive behavior in rats was induced by placing the animals in an open-space swimming apparatus, as described herein, for 15 minutes per trial per day. The animals were subjected to three trials over the course of three days. […] The control rats received a single i.v. dose of saline in the tail vein, 3.5 hours before the second trial.
# rats = details: forced swimming test, 15 mg/kg×3 per day i.p., n=5; cited from earlier work
# PKC [4] = details: competes with [3H]phorbol dibutyrate; read-out: Ki for binding; cited from earlier work
# PKCε = target: T1, PKCε; details: cited from earlier work
# humans = details: cited from earlier work
# PKC [5] = details: cited from earlier work; remark: listed apart in the source
# [6] = test system: murine leukemias and solid tumors; details: cited from earlier work
# [7] = test system: cyclin dependent kinase 2 (Cdk2); details: at 5 ng/ml; cited from earlier work
# PKC [8] = details: K562 cells; cited from earlier work
# [9] = Examples 7-13, present tense, no dose, no data
molecule,measurement,setting,value
CC1=CC[C@H](C)C(C)(C)[C@@H]1/C=C/C(C)=C/CC[C@@]1(CO)[C@H](CCCO)/C(=C(/C)C=O)CC[C@]1(C)O [Iripallidal],GI50 (concentration required to inhibit growth by 50%),NCI 60 cell line screen,from micromolar to nanomolar range
same,Ki,PKCa,75.6 nM
"CCCCCCCCc1ccc2c3c(c[nH]c13)C[C@@H](CO)NC(=O)[C@H](C(C)C)N2C [octylindolactam V, Octylindolactam V]",metabolic stability,[1],greater metabolic stability
same,EC50,protein kinase C,29 nM
CCCCCCCC(=O)O[C@H]1/C(=C/C(=O)OC)C[C@H]2C[C@H](CO)OC(=O)C[C@H](O)C[C@@H]3CCC[C@H](C[C@@H]4CCO[C@H](/C=C/C(C)(C)[C@]1(O)O2)O4)O3 [Analog 1],affinity for PKC (in words),PKC [2],highest affinity for PKC
same,potency relative to bryostatin-1,PKC [2],about 100 times
same,Ki,PKC [2]; read-out: PKC Affin,0.25 nM
C/C=C(/C)C(=O)O[C@H]1C(C)=C[C@]23C(=O)[C@@H](C=C(CO)[C@@H](O)[C@]12O)[C@H]1[C@@H](C[C@H]3C)C1(C)C [Ingenol-3-angelate],antitumor activity,[3],possesses antitumor activity
"N[C@@H](Cc1ccccc1)C(=O)O [Effector 2, phenylalanine]",immobility compared with control group and imipramine group,"Adult Wistar rats; rats, single i.v. dose in the tail vein 3.5 hours before the second trial",effective in reducing the immobility
"c1c[nH]cn1 [Effector 14, Imidazole]",immobility compared with control group and imipramine group,Adult Wistar rats; [9],effective in reducing immobility
CC(C)NNC(=O)c1ccncc1 [iproniazid],percentages of decreases in the distance moved on the third day (using the decrease of control groups as 100%),Adult Wistar rats; rats,44.0±7.7%
same,mobility (distance moved) / immobility compared with control group,Adult Wistar rats; rats,appeared more effective at the dose given than mianserin and imipramine
same,immobility % as control,rats,87.6±7.3%
CN1CCN2c3ccccc3Cc3ccccc3C2C1 (stereo not drawn) [mianserin],percentages of decreases in the distance moved on the third day (using the decrease of control groups as 100%),Adult Wistar rats; rats,33.3±6.3%
same,immobility % as control,rats,66.5±7.0%
"CC(N)C(=O)OC(C)(C)Cc1ccc(Cl)cc1 (stereo not drawn) [Alaproclate, alaproclate]",duration of active swimming compared with control group,"Adult Wistar rats; rats, 10 mg/kg×3 per day",significantly longer
same,mobility (distance moved) / immobility compared with control group,Adult Wistar rats; rats,effective in reducing the immobility
"CC1=C[C@]23C(=O)[C@@H](C=C(COC(=O)c4ccccc4)[C@@H](O)[C@]2(O)[C@H]1OC(=O)c1ccccc1)[C@H]1[C@@H](C[C@H]3C)C1(C)C [Ingenol 3,20-dibenzoate]",Ki,PKC [4],240 nM
"N[C@@H](Cc1ccc(F)cc1)C(=O)O [Effector 5, 4-fluoro phenylalanine]",immobility compared with control group and imipramine group,Adult Wistar rats; [9],effective in reducing immobility
"N[C@@H](Cc1ccc(O)cc1)C(=O)O [Effector 4, 4-hydroxy phenylalanine]",immobility compared with control group and imipramine group,Adult Wistar rats; [9],effective in reducing immobility
"CCCCCC1CC1CC1CC1CCCCCCCC(=O)O (stereo not drawn) [DCP-LA, 2-[(2-pentylcyclopropyl)methyl]cyclopropaneoctanoic acid]",concentration of maximal effect,PKCε; activation of PKCε,100 nM
same,isoform selectivity of PKC activation,PKCε,selectively activates PKCε
CN(C)CCCN1c2ccccc2CCc2ccccc21 [imipramine],percentages of decreases in the distance moved on the third day (using the decrease of control groups as 100%),Adult Wistar rats; rats,49.8±7.6%
same,immobility % as control,rats,61.5±6.5%
"CCC/C=C/C=C/C(=O)O[C@H]1/C(=C/C(=O)OC)C[C@H]2C[C@H]([C@@H](C)O)OC(=O)C[C@H](O)C[C@@H]3C[C@H](OC(C)=O)C(C)(C)[C@](O)(C[C@@H]4C/C(=C/C(=O)OC)C[C@H](/C=C/C(C)(C)[C@]1(O)O2)O4)O3 [Bryostatin 1, bryostatin-1]",difference from imipramine group (10 mg/kg i.p. ×3),"Adult Wistar rats; rats, single i.v. dose 80 μg/kg",No significant difference
same,immobility compared with control group and imipramine group,"Adult Wistar rats; rats, single i.v. dose 80 μg/kg in the tail vein 3.5 hours before the second trial",effective in reducing immobility
same,main adverse reaction,humans,myalgia
CCCCCCCC(=O)OC1C(=CC(=O)OC)CC2CC(CO)OC(=O)CC(O)CCOC(C(C)(C)C)CC3CCOC(C=CC(C)(C)C1(O)O2)O3 (stereo not drawn) [bryolog 3],Ki,"PKC [2]; A-ring bryologs, read-out: affinity for PKC",6.5 nM
"CCCCCCCNS(=O)(=O)c1cccc2c(Cl)cccc12 [SC-10, N-(n-heptyl)-5-chloro-1-naphthalenesulfonamide]",activation of PKC,PKC [5],activates PKC in a calcium-dependent manner
C=C(C)[C@]12C[C@@H](COC(=O)c3ccccc3)[C@@]34OC5(O[C@@H]1[C@@H]3C1O[C@]1(CO)[C@@H](O)[C@@]1(O)[C@H]4[C@@H](C(C)CCCCCC[C@@H]5O)C(C)[C@@H]1OC(=O)c1ccccc1)O2 (stereo partly drawn) [Gnidimacrin],concentrations of potent antitumor activity,[6],0.1 to 1 nM
same,inhibition of Cdk2,[7],100%
same,concentration at which it acts as a PKC activator,PKC [8],≈ 3 nM
"FGF-18: peptide consisting of 207 amino acids, member of the fibroblast growth factor family (protein, UniProt O76093 28-207, looked up) Fibroblast growth factor 18: EENVDFRIHVENQTRARDDVSRKQLRLYQLYSRTSGKHIQVLGRRISARGEDGDKYAQLLVETDTFGSQVRIKGKETEFYLCMNRKGKLVGKPDGTSKECVFIEKVLENNYTALMSAKYSGWYVGFTKKGRPRKGPKTRENQQDVHFMKRYPKGQPELQKPFKYTTVTKRSRRIRPTHPA",immobility compared with control group and imipramine group,Adult Wistar rats; [9],effective in reducing immobility
